Laboratory results reported in US12605462B2, “Porous silicon nanoparticle-based drug delivery system inducing reactive oxygen species and self-activation thereof, and method for preparing same” (University-Industry Cooperation Group of Kyung Hee …, priority 2021, dated 2026).

Columns and labels:
[1] = Conversion of JS-11 to SN-38 by ROS (emission change); type: physicochemical; details: 37° C.; reacted only with H2O2
Procedure: To confirm whether JS-11 is converted to SN-38 by ROS, the change in the emission spike of JS-11 using H2O2 at 37° C. was measured. Since JS-11 has no electron push-pull capability, there is no emission in aqueous media but decomposes upon exposure to H2O2 and fluoresces at 560 nm.

BxPC-3 pancreatic tumors = assay: Therapeutic efficacy in pancreatic cancer xenograft model mice; type: in vivo; details: 20 mg/kg via tail vein on days 34, 37, 40, 43; FIG. 25
Procedure: BALB/c nude mice (females and males, 4 weeks and 5 weeks old) were commercially obtained from Nara Co., Ltd., Gyeonggi-do, Korea. BxPC-3 cells (5×10^6 cells, suspended in 100 μl mixture of RPMI medium and Matrigel, 1:1) were injected subcutaneously behind the flank of each mouse. All animal experiments were performed according to the guidelines of the Korea Kyunghee University Animal Care Committee (IACUC).
Tumor-bearing mice were randomly divided into 5 groups (n=5 per group). (1) PBS only, (2) pSiNP only, (3) JS-11, (4) pSiNP (JS-11), and (5) ROSG-pSiNP (JS-11) were administered by intravenous injection (i.v.) 4 times at intervals of 3 days at a dose of 20 mg/kg, 100 μl each.
The mouse tumor size was recorded every 3 days until the end of the experiment, and the tumor volume was calculated by the formula V=[(tumor length)×(tumor width)^2]/[…]. At the end of the experiment (day 22), the body of each mouse was photographed with a digital camera, and body weight was measured.
Finally, the cancer treatment efficacy of ROSG-pSiNP (JS-11) was evaluated in pancreatic cancer xenograft model mice. To induce pancreatic tumors, BxPC-3 cells were injected subcutaneously behind the flank of mice on day 0. […] Changes in tumor volume and body weight in mice were monitored, and toxic effects were investigated for practical applications.

BxPC-3 cell lines = assay: In vitro cytotoxicity of nano-formulations; type: cell-based; details: human
Procedure: Next, the cytotoxicity of pSiNP, JS-11, pSiNPs (JS-11), and ROSG-pSiNP (JS-11) was evaluated for BxPC-3 cell lines. The throughput of pSiNP (JS-11) and ROSG-pSiNP (JS-11) was corrected with the concentration of JS-11 (0 to 10 μM).
The cytotoxicity of two nano-formulations, pSiNP-NCS (without JS-11 and TEPITC-modifying) and pSiNP-NCS/CGKRK (SEQ ID NO: 1) (without JS-11 and CGKRK-modifying), was further analyzed to confirm the synergistic cytotoxic effect of JS-11 and TEPITC.

[2] = tested on: nuclear factor erythroid 2-related factor 2 (Nrf2); assay: Nrf2 expression in BxPC-3 cells by Western blot (TEPITC/PEITC); type: cell-based, Human; details: for time of greatest increase in Nrf2 expression after incubation / expression of Nrf2: 20 μM; for expression of Nrf2: 0 to 4 hours
Procedure: Oxidative stress-related signaling pathways were analyzed to confirm the association between […] treatment and intracellular ROS upregulation. PEITC was used as a positive control group. PEITC is known to induce Nrf2 accumulation in human prostate cancer PC-3 cells and increase the expression of endogenous heme oxygenase-1 (HO-1) protein. According to FIG. 7A, BxPC-3 cells were treated with […] It is noteworthy that the expression of Nrf2 in the […] treatment group was maximum 30 minutes after incubation began but decreased from 1 hour later.

BxPC-3 cells [3] = assay: PEITC/TEPITC-induced intracellular ROS generation (DCFDA/DCF kit, CLSM); type: cell-based, Human; details: 20 μM, 2 hours; for fluorescence intensity-based enhancement factor (DCF, ROS level) compared with before chemical treatment: FIG. 4 (BxPC-3)
Procedure: The intracellular ROS levels of cells were analyzed using the 2',7'-dichlorofluorosine diacetate (DCFDA/H2DCFDA) cell ROS detection analysis kit. BxPC-3, AsPC-1, and PANC-1 cells (1×10^5 cells/mL, 100 μl/well) were inoculated into 96-well black plates and incubated at 37° C. for 24 hours. The cells were then treated with PEITC or […] at 1.25, 2.5, 5, 10, and 20 μM, respectively, and then incubated at 37° C. for 2 hours. As a positive control group, a set treated with hydrogen peroxide (H2O2) was prepared. The cells were then treated with 20 μM DCFDA (100 μl) at 37° C. for 45 minutes. Excitation/emission wavelengths at 485/535 nm were measured with a microplate reader (Fluorostar Omega, BMG Labtech, Germany). Intracellular ROS generation was assessed by CLSM (LSM800, Carl Zeiss, Oberkochen, Germany) imaging using BxPC-3 cells. BxPC-3 cells (1×10^5 cells/mL, 2 mL) were inoculated into confocal plates. After 24 hours incubation, cells were treated with 20 μM PEITC and […] for 2 hours. The cells were then stained with 20 μM DCFDA (200 μL) at 37° C. for 45 minutes, washed 3 times with PBS, and stained with DAPI for 10 minutes. After washing 3 times, the cells were fixed with 4% paraformaldehyde for 20 minutes. The excitation and emission channels are: DAPI (405 nm, 400-520 nm band filter), ROS (488 nm, 400-585 nm band filter). Cells were contacted with ITC, and intracellular ROS generation was assessed. Human pancreatic cell lines BxPC-3, AsPC-1, and PANC-1 were treated with […], and ROS levels were measured using the DCFDA/DCF kit. When 2',7'-dichlorofluorescein diacetate (DCFDA) diffuses into cells, it is deacetylated to H2DCF by cellular esterase, and when H2DCF comes into contact with ROS, it is converted to green fluorescent DCF. Phenethyl isothiocyanate (PEITC) and H2O2 were used as positive control groups. Each chemical substance ([…], and H2O2, concentration=0 to 20 μM) were treated on the cell line and incubated for 2 hours.

Nrf2 = Nrf2 immunofluorescence / nuclear translocation (CLSM); type: cell-based, Human; details: 30 minutes, BxPC-3
Procedure: CLSM imaging was used to verify that […] induces nuclear translocation of cytoplasmic Nrf2. BxPC-3 cells were treated with […] (0 to 10 μM), incubated for 30 minutes, and visualized by treatment with Nrf2 antibody and DAPI.

heme oxygenase-1 (HO-1) = assay: HO-1 expression in BxPC-3 cells by Western blot; type: cell-based, Human; details: 5 μM, 0 to 6 hours
Procedure: The expression level of HO-1, an antioxidant enzyme essential for cell protection against oxidative stress, was also analyzed. Cells were treated with […] (5 μM) and incubated for 0 to 6 hours. […] This is thought to be because Nrf2 is a transcription factor that regulates the expression of HO-1.

BxPC-3 cells [4] = assay: Cytotoxicity of isothiocyanates (CCK-8 assay); type: cell-based, Human; details: 10 μM, 24 hours
Procedure: Next, the cytotoxicity of TEPITC was analyzed. BxPC-3 cells were treated with 0 to 10 μM of TEPITC or PEITC and incubated for 24 hours, and cytotoxicity and viability were analyzed by CCK-8 assay.

| SMILES | conversion to SN-38 under pH 3 to 10, metal ions and biomolecules [1] | mean tumor volume (BxPC-3 pancreatic tumors) [mm^3] | cytotoxicity (BxPC-3 cell lines; 0.625 μM) [%] | cytotoxicity (BxPC-3 cell lines; 10 μM) [%] | time of greatest increase in Nrf2 expression after incubation [2] [min] | expression of Nrf2 [2] | fluorescence intensity-based enhancement factor (DCF, ROS level) compared with before chemical treatment (BxPC-3 cells [3]) [times] | increase in Nrf2 level, concentration dependence ([2]; 0 to 20 μM) | Nrf2 immunofluorescence localisation (Nrf2; 2.5 μM) | Nrf2 immunofluorescence localisation (Nrf2; 5 μM) | Nrf2 immunofluorescence localisation (Nrf2; 10 μM) | expression level of intracellular HO-1 (heme oxygenase-1 (HO-1)) | time of highest HO-1 expression (heme oxygenase-1 (HO-1)) | intracellular ROS level (fluorescence analysis and CLSM images) (BxPC-3 cells [3]; BxPC-3) | cytotoxicity compared to the untreated group cells (BxPC-3 cells [4]) |
| --- | --- | --- | --- | --- | --- | --- | --- | --- | --- | --- | --- | --- | --- | --- | --- |
| CCc1c2c(nc3ccc(OC(=O)c4ccccc4Nc4cccc(C)c4C)cc13)-c1cc3c(c(=O)n1C2)COC(=O)[C@]3(O)CC [JS-11] | did not show the conversion to SN-38 | 183.1±40.8 | 21.60 | 42.4 |  |  |  |  |  |  |  |  |  |  |  |
| S=C=NCCc1ccccc1 [PEITC, Phenethyl isothiocyanate, reference compound] |  |  |  |  | 30 | significantly increased | 3.67 |  |  |  |  |  |  |  |  |
| CCO[Si](CCCN=C=S)(OCC)OCC [TEPITC, 3-isothiocyanatopropyltriethoxysilane] |  |  |  |  | 30 | significantly increased | 6.34 | concentration-dependent in the range of 2.5 to 10 μM | increase in Nrf2 expression in the cytoplasm | in the nucleus Nrf2 expression was observed | Nrf2 signal in the nucleus was weakened | significantly increased | 2 h and 4 h | upregulates the intracellular ROS level, and the effect was superior to PEITC | up to 80% |
